The term MIC denotes the smallest concentration in the dilution series that meets the test's criterion for growth inhibition. The low end stands for inhibition by little substance, the high end for a need for much substance.

These results are taken from patent publication US8303962B2, “Antibacterial and antifungal peptides” (C3 Jian, Inc., priority 2009, dated 2012).

In one experiment the test system is M. furfur ATCC 14521. Particulars: 5 μM peptide, after 15 min of treatment, 30° C., 10^6 cells/ml, CFU vs no-peptide control. The protocol:
FIG. 1. Killing kinetics of PF-S028 L and D versions against M. furfur were determined using standard time-kill methods previously detailed (Eckert et al. (2006) Antimicrob Agents Chemother., 50: 1480-1488). Briefly, a log phase culture of M. furfur ATCC 14521 was diluted to 10^6 cells/ml in ATCC medium 1072. To the reaction tubes 5 μM of either PF-S028 L or PF-S028 D were added. A reaction tube to which 4 μl of 50% methanol served as the negative control. Reaction tubes were stored at 30° C. and at indicated intervals an aliquot was removed from the reaction tube and placed in a recovery tube where peptide was removed by dilution. An aliquot from the recovery tube was plated on ATCC medium 1072 agar plates and incubated at 30° C. until visible colonies formed. Colony forming units were calculated for the negative control (no peptide), PF-S028 L, and PF-S028 D treated cultures.
In some cases killing kinetic experiments were then conducted. Killing kinetics of PF-S028 L and D versions against M. furfur were determined as described in Eckert et al. (2006) Antimicrob Agents Chemother., 50: 1480-1488. Briefly, a log phase culture of M. furfur ATCC 14521 was diluted to 10^6 cells/ml in ATCC medium 1072. To the reaction tubes 5 μM of either PF-S028 L or PF-S028 D were added. […] Colony forming units were calculated for the negative control (no peptide), PF-S028 L, and PF-S028 D treated cultures.

In the next experiment the test system is S. pneumoniae. The class given is cell-based, Streptococcus pneumoniae. The following applies: TSB supplemented with 5% yeast extract, 37° C., 10% CO2. The protocol: (§1) In certain embodiments the MIC assays are performed as described herein in the Examples. For each organism, the media and growth conditions utilized is detailed in Table 8.
(§2) In certain embodiments the MIC assays are performed as follows: For each organism, the media and growth conditions utilized is detailed in Table 8.

The test system of a further experiment is A. niger. In kind it is cell-based, Aspergillus niger. How it is done: as §1, §2
Another experiment relates to MRSA. The class given is cell-based, Methicillin-resistant Staphylococcus aureus. How it is done: as §1, §2
In another experiment the test system is B. subtilis. The class given is cell-based, Bacillus subtilis. The protocol: as §1, §2
For a further experiment, the system named is T. rubrum. The class given is cell-based, Trichophyton rubrum. The protocol: as §1, §2
In a further experiment the test system is Candida albicans. The experiment is described as follows: Peptide binding to Candida albicans. The following applies: tested at 3.13, 6.25, 12.5 and 25.0 μM in 1× PBS or 20 mM HEPES, 150 mM NaCl, 1 mM MgCl2, 0.1% CTAB. The protocol:
The peptides in Table 6 were tested for binding efficiency at 3.13, 6.25, 12.5 and 25.0 μM concentrations in 1× phosphate-buffered saline or 20 mM HEPES (4-(2-hydroxyethyl)-1-piperazineethanesulfonic acid), 150 mM sodium chloride, 1 mM magnesium chloride and 0.1% CTAB.

Values after ≈ are worked out from the molar mass of the structure shown. Where two headings read alike, the source gives them in different places. Peptide text beside a SMILES is read from it.

As for `CC[C@@H](C)[C@@H](NC(=O)[C@H](NC(=O)[C@@H](CO)NC(=O)CN)C(C)C)C(=O)N[C@H](CCCCN)C(=O)N[C@H](CCCCN)C(=O)N[C@H](CCCNC(=N)N)C(=O)N[C@H](CCCNC(=N)N)C(=O)N[C@H](CCCCN)C(=O)N[C@H](CCCNC(=N)N)C(=O)N[C@H](CCSC)C(=O)N[C@H](CO)C(=O)N[C@H](CCCCN)C(=O)N[C@H](CCCCN)C(=O)N[C@H](CCCCN)C(=O)N[C@H](Cc1c[nH]cn1)C(=O)N[C@H](CCCNC(=N)N)C(=O)N[C@H](CCCCN)C(=O)N[C@H](CCSC)C(=O)N[C@H](CC(C)C)C(=O)N[C@H](CCCNC(=N)N)C(=O)N[C@H](CCCNC(=N)N)C(=O)N[C@@H](C(=O)N[C@H](CCCNC(=N)N)C(=O)N[C@@H](C(=O)N[C@H](CCC(N)=O)C(=O)N[C@H](CCCNC(=N)N)C(=O)N[C@H](CCCNC(=N)N)C(=O)N[C@H](CCCCN)C(=O)N[C@H](CC(C)C)C(=O)NCC(=O)N[C@H](CCCCN)C(=O)O)C(C)C)[C@H](C)O` [PF-S028 D], the M. furfur killed result in the experiment on M. furfur ATCC 14521 was “over 99%”.
In the case of `CC(C)C[C@H](NC(=O)CNC(=O)[C@@H](N)CC(C)C)C(=O)N[C@H](C(=O)N[C@@H](C)C(=O)NCC(=O)N[C@H](C(=O)N[C@@H](C)C(=O)N[C@@H](Cc1ccc(O)cc1)C(=O)N[C@@H](C)C(=O)N[C@@H](C)C(=O)N[C@@H](CCC(N)=O)C(=O)N1CCC[C@H]1C(=O)N[C@H](C(=O)N[C@@H](CC(N)=O)C(=O)N[C@@H](CCC(N)=O)C(=O)N1CCC[C@H]1C(=O)N[C@H](C(=O)N[C@@H](CC(N)=O)C(=O)N[C@@H](CCC(N)=O)C(=O)N1CCC[C@H]1C(=O)N[C@H](C(=O)N[C@@H](CC(N)=O)C(=O)N[C@@H](CCC(N)=O)C(=O)N1CCC[C@H]1C(=O)N[C@H](C(=O)N[C@@H](CC(N)=O)C(=O)N[C@@H](CCC(N)=O)C(=O)N1CCC[C@H]1C(=O)N[C@H](C(=O)N[C@@H](CC(N)=O)C(=O)N[C@@H](CCC(N)=O)C(=O)N1CCC[C@H]1C(=O)N[C@H](C(=O)N[C@@H](CC(N)=O)C(=O)N[C@@H](CCC(N)=O)C(=O)N1CCC[C@H]1C(=O)N[C@@H](CCCNC(=N)N)C(=O)N[C@@H](Cc1c[nH]c2ccccc12)C(=O)O)[C@@H](C)O)[C@@H](C)O)[C@@H](C)O)[C@@H](C)O)[C@@H](C)O)[C@@H](C)O)C(C)C)[C@@H](C)O` [PF-520] (H-LGLTAGVAYAAQPTNQPTNQPTNQPTNQPTNQPTNQPRW-OH; N-terminus and C-terminus assumed), the minimum inhibitory concentration (MIC) against S. pneumoniae was 50 µM (≈ 211 µg/mL). That is a double-digit micromolar value.
Consider `CC[C@H](C)[C@H](NC(=O)[C@H](CCCNC(=N)N)NC(=O)[C@H](CCCNC(=N)N)NC(=O)[C@H](CCCNC(=N)N)NC(=O)[C@@H](NC(=O)[C@H](CCSC)NC(=O)[C@H](CC(=O)O)NC(=O)[C@H](C)NC(=O)[C@H](CCSC)NC(=O)[C@H](C)NC(=O)[C@@H](NC(=O)[C@H](CC(C)C)NC(=O)[C@H](CCCCN)NC(=O)[C@H](CO)NC(=O)[C@H](CCC(=O)O)NC(=O)[C@@H](N)CCCNC(=N)N)[C@@H](C)CC)[C@@H](C)CC)C(=O)O` [PF-545] (H-RESKLIAMADMIRRRI-OH; N-terminus and C-terminus assumed), for which the minimal inhibitory concentration (MIC) with A. niger is 50 µM (≈ 98 µg/mL); with MRSA, 50 µM (≈ 98 µg/mL); against B. subtilis, 25 µM (≈ 49 µg/mL).
For the compound `CC[C@H](C)[C@H](NC(=O)[C@H](CCCNC(=N)N)NC(=O)[C@@H](NC(=O)[C@H](CCCCN)NC(=O)[C@H](CCCCN)NC(=O)[C@H](CC(C)C)NC(=O)[C@H](CC(C)C)NC(=O)[C@H](CCCCN)NC(=O)[C@H](CCCNC(=N)N)NC(=O)[C@H](Cc1c[nH]cn1)NC(=O)[C@H](CCCCN)NC(=O)[C@H](CCCCN)NC(=O)[C@H](CCCCN)NC(=O)[C@H](C)NC(=O)[C@H](CCSC)NC(=O)[C@H](CCCNC(=N)N)NC(=O)[C@H](CCCCN)NC(=O)[C@H](CCCNC(=N)N)NC(=O)[C@H](CCCNC(=N)N)NC(=O)[C@H](CCCCN)NC(=O)[C@H](CCCCN)NC(=O)[C@@H](NC(=O)[C@@H](NC(=O)[C@H](CO)NC(=O)CN)C(C)C)[C@@H](C)CC)[C@@H](C)O)C(=O)N[C@@H](CCC(N)=O)C(=O)N[C@@H](CCCNC(=N)N)C(=O)N[C@@H](CCCNC(=N)N)C(=O)N[C@@H](CCCNC(=N)N)C(=O)N[C@@H](C)C(=O)NCC(=O)N[C@@H](CCCCN)C(=O)O` [PF-527] (H-GSVIKKRRKRMAKKKHRKLLKKTRIQRRRAGK-OH; N-terminus and C-terminus assumed), the MIC in the experiment on A. niger (A. niger, Potato Dextrose Agar, 25° C., aerobic) turned out to be 50 µM (≈ 197 µg/mL); against T. rubrum (T. rubrum, Potato Dextrose Agar, 25° C., aerobic), 25 µM (≈ 98.5 µg/mL).
In the case of “DLRKAK (Antimicrobial peptide and/or targeting peptide) [PF-024]”, the “Target(s): form of Candida albicans bound” value in the experiment on Candida albicans is on record as “hyphae”.
Still for that read-out and setting: the result for “MPKARPVNHNKKKSKITIKSNFTLFYMFNP (Antimicrobial peptide and/or targeting peptide) [PF-634]” reads “hyphae”; that for “GVGIGFIMMGVVGYAVKLVHIPIRYLIV (Antimicrobial peptide and/or targeting peptide) [PF-770]”, “hyphae”; that for “HARAAVGVAELPRGAAVEVELIAAVRP (Antimicrobial peptide and/or targeting peptide) [1T-65]”, “hyphae”.
Compound `CC[C@H](C)[C@H](NC(=O)[C@@H](NC(=O)[C@H](CO)NC(=O)CN)C(C)C)C(=O)N[C@@H](CCCCN)C(=O)N[C@@H](CCCCN)C(=O)N[C@@H](CCCNC(=N)N)C(=O)N[C@@H](CCCNC(=N)N)C(=O)N[C@@H](CCCCN)C(=O)N[C@@H](CCCNC(=N)N)C(=O)N[C@@H](CCSC)C(=O)N[C@@H](CO)C(=O)N[C@@H](CCCCN)C(=O)N[C@@H](CCCCN)C(=O)N[C@@H](CCCCN)C(=O)N[C@@H](Cc1c[nH]cn1)C(=O)N[C@@H](CCCNC(=N)N)C(=O)N[C@@H](CCCCN)C(=O)N[C@@H](CCSC)C(=O)N[C@@H](CC(C)C)C(=O)N[C@@H](CCCNC(=N)N)C(=O)N[C@@H](CCCNC(=N)N)C(=O)N[C@H](C(=O)N[C@@H](CCCNC(=N)N)C(=O)N[C@H](C(=O)N[C@@H](CCC(N)=O)C(=O)N[C@@H](CCCNC(=N)N)C(=O)N[C@@H](CCCNC(=N)N)C(=O)N[C@@H](CCCCN)C(=O)N[C@@H](CC(C)C)C(=O)NCC(=O)N[C@@H](CCCCN)C(=O)O)C(C)C)[C@@H](C)O` [PF-S028 L] had a M. furfur killed with M. furfur ATCC 14521 of 39%.
On to `CC(C)[C@H](NC(=O)[C@H](CCCCN)NC(=O)[C@H](Cc1c[nH]c2ccccc12)NC(=O)CNC(=O)[C@@H](NC(=O)[C@H](CC(=O)O)NC(=O)[C@H](CO)NC(=O)[C@H](Cc1c[nH]cn1)NC(=O)CNC(=O)[C@@H]1CCCN1C(=O)[C@@H](NC(=O)[C@H](CCCNC(=N)N)NC(=O)[C@H](CO)NC(=O)[C@@H](N)Cc1c[nH]c2ccccc12)C(C)C)[C@@H](C)O)C(=O)N[C@@H](Cc1c[nH]c2ccccc12)C(=O)N[C@@H](Cc1c[nH]cn1)C(=O)N[C@@H](CCCNC(=N)N)C(=O)N[C@@H](Cc1c[nH]c2ccccc12)C(=O)O` [PF-547] (H-WSRVPGHSDTGWKVWHRW-OH; N-terminus and C-terminus assumed), for which the MIC against T. rubrum and against B. subtilis was 25 µM (≈ 56.9 µg/mL) throughout.
For the compound “LVRLA (Antimicrobial peptide and/or targeting peptide) [PF-636]”, the “Target(s): form of Candida albicans bound” value with Candida albicans was “hyphae”.
The same measure, in the same setting: the result for “VYRHLRFIDGKLVEIRLERK (Antimicrobial peptide and/or targeting peptide) [1T-36]” reads “hyphae”; that for “NILFGIIGFVVAMTAAVIVTAISIAK (Antimicrobial peptide and/or targeting peptide) [PF-543]”, “hyphae”; that for “NRQAQGERAHGEQQG (Antimicrobial peptide and/or targeting peptide) [1T-70]”, “yeast cells”.
